From patent EP3042903B1, “Substituted hetero-bicyclic compounds, compositions and medicinal applications thereof” (Impetis Biosciences Ltd., priority 2015, dated 2016)

Experiments:
[1] = system: B cell activation as measured by CD69 expression in mouse splenocytes; assay: Inhibition of B cell activation as measured by CD69 expression in mouse splenocytes (flow cytometry); format: cell-based; settings: C57/BL6 splenocytes, 3 µg/mL goat anti-mouse IgM, 18-20 hours, CD69 +ve cells within CD19; read-out: IC50 (nM) in B cell activation assay in Mouse spleenocytes
From the text: Inhibition of B cell activation as measured by CD69 expression in mouse splenocytes:
To test the effect of BTK inhibitors in suppressing B-cell receptor (BCR) mediated activation of B cells, we developed a flow cytometry based assay to analyze CD69 expression in B cell population among total splenocyte from the mouse. C57/BL6 mouse spleens were dissected out and splenocytes were isolated by mincing the tissue with a syringe plunger followed by RBC lysis (0.85% ammonium chloride, (Qualigens,Cat #21405) and several washes in PBS. Finally, cell were cultured in culture medium [RPMI medium (Sigma, Cat R6504) with 10% FBS (Gibco - Cat #10270).
Test compounds were diluted half log starting from 2 mM in 100% DMSO (Sigma, cat#D2650) (200X). 1x10^5 splenocytes were incubated with 1 µL of diluted test compounds in 200 µL culture medium in a U-bottom 96 well plate (Greiner) at 37°C with 5% CO2 for 30 minutes. Control wells received 1 µL of 100% DMSO without any compound. The cells were stimulated with 3 µg/mL goat anti-mouse IgM (Sigma, cat#M8644) and incubated for 18-20 hours. After the stimulation, cells were washed in cold PBS with 1% FBS and stained with 1:100 dilution of anti-CD69-PE (eBioscience, cat#12-0691-83) and anti-CD19-PE.Cy5 (eBioscience, cat#15-0193-83) for 1 hour on ice. Then the cells were washed 3 times with PBS with 1% FBS and analyzed by Guava Easycyte Mini flow cytometer system (Millipore). Flow cytometry data were analyzed using Weasel software (WEHI, Melbourne). B cells were gated using CD19 marker. Expression of CD69 was analyzed as percentage of CD69 +ve cells within CD19. Percent activity for each data point was calculated using following formula: [formula]
(§1) Percentage activity was fit using sigmoid dose response with variable slope logistic equation in GraphPad Prism 5 software to determine IC50.

[2] = target: T1, Recombinant Human Bruton's tyrosine kinase (Btk) (Homo sapiens, UniProt Q06187); assay: Recombinant Human Bruton's tyrosine kinase (Btk) inhibition assay (HTRF KinEASE-TK); format: biochemical; settings: 20 ng/ml rhBtk, 77 µM ATP (KM), 1 µM TK-Biotin Substrate, 90 minutes; read-out: IC50 (nM) in recombinant hBTK assay
T1 construct: Full length human BTK (hBTK, Genbank#NM_000061.2) was cloned into pFastBac-HTB vector; 6XHis (N); made in house; host or cells: Sf9 cells (Bac-to-Bac baculovirus expression system)
T1 sequence (Q06187 whole entry): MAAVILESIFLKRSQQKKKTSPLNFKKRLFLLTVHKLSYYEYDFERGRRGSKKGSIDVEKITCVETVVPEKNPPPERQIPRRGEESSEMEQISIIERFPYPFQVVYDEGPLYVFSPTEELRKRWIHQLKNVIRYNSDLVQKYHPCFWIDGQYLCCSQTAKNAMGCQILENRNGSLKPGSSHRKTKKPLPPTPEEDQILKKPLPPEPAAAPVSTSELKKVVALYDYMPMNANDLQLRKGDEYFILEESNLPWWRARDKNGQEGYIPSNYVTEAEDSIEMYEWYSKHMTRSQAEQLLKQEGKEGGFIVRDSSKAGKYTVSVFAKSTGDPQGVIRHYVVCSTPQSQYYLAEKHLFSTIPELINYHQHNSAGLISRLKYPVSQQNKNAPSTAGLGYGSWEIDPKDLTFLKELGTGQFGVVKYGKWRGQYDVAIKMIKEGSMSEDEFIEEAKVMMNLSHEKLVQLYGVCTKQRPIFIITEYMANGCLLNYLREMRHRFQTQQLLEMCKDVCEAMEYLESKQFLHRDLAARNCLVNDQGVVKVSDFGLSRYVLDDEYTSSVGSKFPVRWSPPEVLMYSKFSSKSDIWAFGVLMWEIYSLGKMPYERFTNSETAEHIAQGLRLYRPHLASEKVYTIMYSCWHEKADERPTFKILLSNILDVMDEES
Protocol: Recombinant Human Bruton's tyrosine kinase (Btk) inhibition assay.
Full length human BTK (hBTK, Genbank#NM_000061.2) was cloned into pFastBac-HTB vector (Invitrogen, cat#10359-016). hBTK gene was expressed with N'-terminal 6XHis tag in Sf9 cells using Bac-to-Bac ^(R) Baculovirus expression system (Invitrogen, cat#10359-016) and the recombinant protein was purified by Ni-NTA method. The elution buffer for hBTK consisted of 50 mM Hepes pH 8.0, 300 mM NaCl, 10% glycerol, 1 mM dithiothreitol and 200 mM imidazole.
The inhibition assays were performed using the generic tyrosine kinase assay kit from Cis Bio (HTRF® KinEASE - TK™ # 62TK0PEB). The assay is based on the principle of fluorescence resonance energy transfer (FRET) between the Europium Cryptate labeled anti-phosphotyrosine antibody and streptavidin labeled fluorophore, XL-665. In an uninhibited kinase reaction the biotinylated peptide substrate (Tk-Biotin) gets phosphorylated at an intermediate tyrosine site which is captured by anti-phosphotyrosine antibody which eventually acts as a FRET donor. The streptavidin labeled XL-665 binds strongly to the Tk-Biotin substrate and act as a FRET acceptor. The resultant FRET signal is measured at 665 nm. A ratio of this specific fluorescence (665nm) to the background fluorescence (620nm), conferred by the free antibody, is directly proportional to the kinase activity.
The Btk inhibition assays were performed using 20 ng/ml of rhBtk in a final volume of 10µl reaction buffer containing 77 µM ATP and 1 µM TK-Biotin Substrate in 50 mM HEPES pH 7.0, 5mM MgCl2, 1mM DTT, 0.01% Tween 20 and 50nM SEB®; with a range of concentrations of the inhibitors. The kinase reaction was carried out at the KM of ATP (77 µM) as well as that of Tk-Biotin substrate (1 µM). After 90 minutes, the reaction was stopped by addition of SA-XL665 at a concentration of 62.5 nM in HTRF® detection buffer containing EDTA. Finally 5 µL of TK antibody-cryptate was added to the reaction and the plate was incubated for additional 60 minutes. The fluorescence was read using the FlexStation (Molecular Devices) with excitation at 340 nm and emissions at 620nm (for Cryptate) and 665nm (for FRET). A ratio of the 2 emissions was calculated for each well and expressed as follows: Specific signal = Ratio(Sample)−Ratio(Negative) [formula] Ratio = (665nm/620nm) × 10^4 [formula] Mean Ratio = ∑Ratio/3(triplicates) [formula]
For each data point, % inhibition is calculated based on uninhibited reaction which is considered as 100% activity over no enzyme or substrate controls. Dose response data is then fit using a four parameter logistic equation using GraphPad Prism 5 software to determine inhibition constant 50(IC50).

[3] = system: B cell activation as measured by CD69 expression in Human whole blood; assay: Inhibition of B cell activation as measured by CD69 expression in Human whole blood (flow cytometry); format: cell-based; settings: heparinized human whole blood, anti-IgD antibody 30 µg/mL, 4 hours, CD69 positive cells among CD20 B cells
Protocol: Inhibition of B cell activation as measured by CD69 expression in Human whole blood
To test the effect of BTK inhibitors in suppressing B-cell receptor (BCR) mediated activation of B cells, we developed a flow cytometry based assay to analyze CD69 expression in B cell population in human whole blood. Freshly collected heparinized human whole blood (60 µL/well) was dispensed in 96-well U bottom plate (Greiner), treated with the test compound at a concentrations ranging from 10 µM to 0.3 nM (half log dilutions). 0.5% DMSO (Sigma, cat#D2650) was used as vehicle control. The whole blood was incubated with compounds for 1 hour, followed by stimulation with anti-IgD antibody (Goat Anti-Human IgD Antibody - affinity purified, Bethyl laboratories, cat#A80-106A) at a final concentration of 30 µg/mL at 37°C and 5% CO2 for 4 hours. Subsequently, 45 µL blood was transferred to 1.5 ml microcentrifuge tubes and 1.2 µL of anti-CD20-PE.Cy5 (BD Biosciences, cat#561761)and 1.6 µL of anti-CD69-PE (eBioscience, cat#12-0691-83) antibody were added and mixed properly by gently tapping the tubes. Blood was stained for 20 minutes at room temperature (RT). After antibody incubation, 1 mL pre-warmed 1X Lyse/Fix solution (BD Biosciences, cat#558049) was added and cells were incubated at RT for 10 minutes. Then the tubes were centrifuged at 450xg for 5 minutes at RT and supernatant was removed. Pellet was disrupted by gentle tapping, cells were washed with 1 mL freshly prepared wash buffer and centrifuged at 450xg for 5 minutes at RT. Supernatant was removed completely before resuspending cells in 200 µl of wash buffer and proceeded for acquisition in Guava Easy Cyte Mini instrument. Acquisition was done with following laser settings: FSC Gain: X 16, FSC fine gain 100%, SSC: 893V, GRN: 663V, YLW: 649V, RED: 802V, Threshold Parameters Offset: FSC 0.73 V Threshold 300 units. The cells were diluted in such a way so that cell conc. should not exceed 500 cells/µL and at least 5000 cells were acquired. Viable lymphocytes were gated from the forward and side scatter profile of cells and B cells were sub-gated based on CD20-PE.Cy5 staining. Percent of CD69-PE positive cells were calculated among B lymphocyte sub-gate using Weasel software. Percent activity for each data point was calculated using following formula: [formula]
as §1

IC50 [1]: 9 nM
IC50 [2]: 1.3 nM
IC50 [3]: 124 nM
SMILES: O=C1c2c(F)cc(C3CC3)cc2OCCN1c1cc(F)cc(-c2ccnc3[nH]c(C4=CCN(C5COC5)CC4)cc23)c1CO [Example 8, 8-cyclopropyl-6-fluoro-4-[5-fluoro-2-(hydroxymethyl)-3-[2-[1-(oxetan-3-yl)-3,6-dihydro-2H-pyridin-4-yl]-1H-pyrrolo[2,3-b]pyridin-4-yl]phenyl]-2,3-dihydro-1,4-benzoxazepin-5-one]
